Assay results taken from paper PMC9694488, “Amyloid beta and its naturally occurring N-terminal variants are potent activators of human and mouse formyl peptide receptor 1” (The Journal of Biological Chemistry, 2022).
Entries after “also recorded” stand apart in the source; their conditions may differ.

Experiments:
FPR1 and FPR2 = conditions: cited from earlier work
hFPR3 = assay: Ca2+ imaging, HEK293T transiently transfected with hFPR3; conditions: for threshold for minimal detectable activation, hFPR3: Ca2+ imaging, transfected HEK293T + Gα16, Calbryte 520, C1 buffer pH 7.2, n = 3, N = 1; for activation of hFPR3: 10 nM, n = 1, N = 3 (Fig. S6C)
Method: (§2) All peptides were thawed at room temperature approximately 1 h before each functional experiment, as this time was needed to prepare the compound plates for each measurement.
(§3) HEK293T cells (ATCC) were cultured in Dulbecco’s Modified Eagle’s medium (DMEM, Biowest) supplemented with 10% (v/v) heat-inactivated fetal calf serum (FCS, Pan Biotech), 1 unit/ml penicillin-streptomycin (Biowest), and 2 mM L-glutamine (Biowest) until 80% confluence. For transfection, approximately 2000 cells were seeded in each well of poly-D-lysine–coated (PDL) (10 μg/ml in PBS, Sigma) black optical 96-well μCLEAR-plates (Greiner Bio-One). Cells were transfected after 24 h using jetPEI (Polyplus-transfection SA) with 0.125 μg of DNA plasmids encoding the respective receptors and equal amounts of a plasmid encoding the G protein subunit Gα16 since this subunit is needed to trigger FPR-dependent calcium signals in HEK293 cells ([50], [70]). The medium of transfected cells was changed 24 h after transfection. For mock transfections, the proportion of the FPR-containing plasmids were substituted by an empty pcDNA3.1 vector.
(§4) Cell population responses of transfected HEK293T cells and U87 cells were recorded using a Flexstation III microplate reader (Molecular Devices). Briefly, cells were incubated with 2 μM Calbryte 520 AM (AAC Bioquest) for 2 h at room temperature in C1 assay buffer with 5 mM glucose (Carl Roth). Before each experiment, cells were rinsed three times with C1. Experiments with HEK293T cells were conducted 48 h after transfection, while experiments with U87 cells were performed 24 h after seeding. Acquisition of baseline fluorescence was performed for 25 s before ligand application, and cell population response was measured for 125 s after application.

mFpr1 = assay: Ca2+ imaging, HEK293T transiently transfected with mFpr1; format: cell-based, mouse; conditions: n = 3, N = 1; for threshold for minimal detectable activation, mFpr1: Ca2+ imaging, transfected HEK293T + Gα16, Calbryte 520, C1 buffer pH 7.2; for sensitivity relative to full-length Aβ1-42, mFpr1: concentration response curves
hFPR1, hFPR2, hFPR3 = assay: Ca2+ imaging, human FPRs taken together; format: cell-based; conditions: transfected HEK293T
hFPR1 = assay: Ca2+ imaging, HEK293T transiently transfected with hFPR1; format: cell-based, human; conditions: for threshold for minimal detectable activation, hFPR1: Ca2+ imaging; for threshold for minimal detectable activation, hFPR1 / sensitivity relative to full-length Aβ1-42, hFPR1: n = 3, N = 1; for sensitivity relative to full-length Aβ1-42, hFPR1: concentration response curves
hFPR2 = assay: Ca2+ imaging, HEK293T transiently transfected with hFPR2; format: cell-based, human; conditions: for threshold for minimal detectable activation, hFPR2: Ca2+ imaging, transfected HEK293T + Gα16, Calbryte 520, C1 buffer pH 7.2; for threshold for minimal detectable activation, hFPR2 / hFPR2 response concentration: n = 3, N = 1; for hFPR2 response concentration: concentration response curves
Method: as §2, §3, §4

mFpr2 = assay: Ca2+ imaging, HEK293T transiently transfected with mFpr2; format: cell-based, mouse; conditions: n = 3, N = 1; for threshold for minimal detectable activation, mFpr2: Ca2+ imaging, transfected HEK293T + Gα16, Calbryte 520, C1 buffer pH 7.2; for mFpr2 response concentration: concentration response curves
Method: as §2, §3, §4

mouse and human FPR1 = assay: Ca2+ imaging, HEK293T with mouse and human FPR1 taken together; format: cell-based
glial cells = conditions: cited from earlier work
From the text: (§1) In summary, our study provides a systematic overview over the capability of different mouse and human FPRs to interact with Aβ in different buffer systems. To our knowledge, we are the first to report an activation of hFPR3 by Aβ and the first to identify N-abridged Aβ fragments as activators of FPRs.

U87 cells [1] = assay: Chemotaxis assay, U87 cells; format: cell-based, human; conditions: n = 3, N = 1; for migration (chemotaxis) of U87 cells: IncuCyte S3, ClearView plate, 24 h, 0.5% FCS; for migration of U87 cells towards receptor subtype-specific activator: 10 nM
Method: Cell migration assays were performed and analyzed with an IncuCyte S3 Life Cell Imaging System (EssenBio Science). […] Approximately, 1000 cells were placed into the top chamber of each well of a 96-well ClearView Plate (EssenBioscience). Chemoattractants were mixed in 200 μl medium and then placed in the corresponding bottom chambers. Image acquisition was performed hourly for 24 h on both sides of a membrane separating the top and bottom chambers. Subsequent analysis was performed using the IncuCyte S3 software.

human and mouse FPRs [2] = assay: Ca2+ imaging, FPR-transfected HEK293T (several human and mouse FPRs taken together); format: cell-based; conditions: n = 3, N = 1; for Ca2+ responses on FPRs: 5 μM
Method: as §2, §3, §4

U87 cells [3] = assay: Ca2+ imaging, U87 cells; conditions: for Ca2+ response of U87 cells to receptor subtype-specific activator: 10 nM, n = 3, N = 3
Method: Peptides in HBSS or Tris–NaCl were dissolved in an ultrasonic bath as described above. […] The Aβ17-40 peptide used throughout the main text was purchased from Anaspec/MoBiTec and validated with Aβ17-40 peptides from Sigma-Aldrich and Synpeptide. Aβ11-40 was obtained from Peptides&Elephants. […] Tert-Boc-FLFL (tBoc2) was purchased from Bachem and dissolved in DMSO at 30 mM. f-MLFYFS (Psy-SP6) and f-MAMKKL (Sal-SP4) were obtained from VCPBIO and dissolved at 10 mM in DMSO (Psy-SP6) or at 1 mM in C1 (SP4), respectively. WKWMVm-NH2 and WKWMVm-CHO were purchased from Proteogenix and VCPBIO, respectively, and dissolved as 1 mM stock solutions in C1. fMLF was purchased from Sigma-Aldrich and also dissolved at 1 mM in C1. All peptides were thawed at room temperature approximately 1 h before each functional experiment, as this time was needed to prepare the compound plates for each measurement.
U87 MG cells (CLS) were cultured in Minimum Essential medium (Biowest) supplemented with 10% (v/v) heat-inactivated FCS (Pan Biotech), 1 unit/ml penicillin-streptomycin (Biowest), 2 mM L-glutamine (Biowest), and 1 unit/ml non-essential amino acids (Biowest) until 50 to 60% confluence. For calcium imaging and immunostaining, on average 2500 cells were seeded in each well of PDL-coated (10 μg/ml in PBS, Sigma) black optical 96-well μCLEAR-plates (Greiner Bio-One).
as §4

FPR1 = conditions: cited from earlier work
From the text: as §1

APP/PS1 mice = conditions: cited from earlier work
From the text: The activation of PRRs by Aβ has become a recent focus in AD research because they have a special ability to potently trigger the reactive state ([14], [25]). Among these PRRs, FPRs are one of the promising targets for AD research ([12]). They belong to a small gene family of G protein–coupled receptors with three members in humans and seven in mice ([26]). FPRs are primarily expressed in the innate and adaptive immune system, where they contribute to the detection and elimination of bacterial pathogens ([27], [28], [29], [30]). However, they are also expressed in a number of cell types in the ... || In summary, our study provides a systematic overview over the capability of different mouse and human FPRs to interact with Aβ in different buffer systems. To our knowledge, we are the first to report an activation of hFPR3 by Aβ and the first to identify N-abridged Aβ fragments as activators of FPRs.

human and mouse FPRs [4] = conditions: control ligand, 10 μM; cited from earlier work
Method: Cell population responses of transfected HEK293T cells and U87 cells were recorded using a Flexstation III microplate reader (Molecular Devices). Briefly, cells were incubated with 2 μM Calbryte 520 AM (AAC Bioquest) for 2 h at room temperature in C1 assay buffer with 5 mM glucose (Carl Roth). Before each experiment, cells were rinsed three times with C1. Experiments with HEK293T cells were conducted 48 h after transfection, while experiments with U87 cells were performed 24 h after seeding.

U87 cells [5] = assay: Ca2+ imaging cross-desensitization, U87 cells; format: cell-based, human; conditions: n = 1, N = 3
From the text: Left: Representative image of gel electrophoresis after reverse transcription polymerase chain reaction with primers for all hFPRs. Right: Quantification of complementary DNA for all FPRs obtained through reverse transcription quantitative polymerase chain reaction, n = 5, N = 2. One-way ANOVA test, Dunnett post hoc test. B, left: representative immunocytochemistry staining of U87 cells and transfected HEK293T cells with FPR subtype–specific antibodies (red) and nuclei staining (blue). For visibility, brightness and contrast were adjusted for U87 cells and HEK293T cells differently; for absolute intensity comparison pictures with equal settings for exposure time, brightness and contrast pictures are shown in Figure S5. Scale bars indicate 100 μm. Right: Quantification of the mean FPR staining in U87 cells (green) in comparison to FPR-transfected HEK293T cells (red). Analysis was performed on images acquired with the same settings. n = 2, N = 5 for U87 cells and n = 2, N = 2 for HEK293T cells. One-way ANOVA test, Tukey post hoc test. […] One-way ANOVA test, Dunnett post hoc test. […] Representative […] traces (left) and mean Ca^2+ peak responses (right) to a secondary Aβ17-40 stimulus after pre-application of SP4 or SP6 as a first stimulus, n = 1, N = 3; t test. […] One-way ANOVA test, Tukey post hoc test. All Error bars, S.D. ∗p ≤ 0.05, ∗∗p ≤ 0.01, ∗∗∗p ≤ 0.001; ns, no significance. […]

[6] = transfected HEK293T + Gα16, Calbryte 520, assay buffer C1 pH 7.2, Flexstation III, peptide stock 5 mM in DMSO
[7] = 10 μM tBoc2 co-applied with 5 μM Aβ17-40 (Fig. S6B)

Compound: C[S+](C)[O-] [DMSO, dimethyl sulfoxide]
- agonism at FPR1 and FPR2 (FPR1 and FPR2): agonist for FPR1 and FPR2

Compound: Aβ1-40: Amyloid beta peptide, human WT sequence, from Anaspec/MoBiTec
- threshold for minimal detectable activation, hFPR3 (hFPR3): 3 µM
- threshold for minimal detectable activation, mFpr1 (mFpr1): 500 nM
- response of hFPRs (in addition to hFPR2) (hFPR1, hFPR2, hFPR3): all other hFPRs also responded
- threshold for minimal detectable activation, hFPR1 (hFPR1; transfected HEK293T + Gα16, Calbryte 520, assay buffer C1 pH 7.2, peptide stock 30 μM in C1): 3000 nM
- threshold for minimal detectable activation, hFPR2 (hFPR2): 3 µM
- threshold for minimal detectable activation, mFpr2 (mFpr2): 5 µM

Compound: Aβ11-40: N-abridged naturally occurring Aβ variant, from Peptides&Elephants
- activation of mouse and human FPR1 (in words) (mouse and human FPR1): very potent activators of mouse and human FPR1, acting at nanomolar concentrations; also recorded: drastically lower concentrations than longer peptides
- threshold for minimal detectable activation, hFPR3 (hFPR3): 1 µM
- threshold for minimal detectable activation, mFpr1 (mFpr1): 30 nM
- sensitivity relative to full-length Aβ1-42, mFpr1 (mFpr1): more than 10 fold
- response of hFPRs (in addition to hFPR2) (hFPR1, hFPR2, hFPR3): all other hFPRs also responded
- activation of glial cells (glial cells): shown to activate glial cells
- threshold for minimal detectable activation, hFPR1 (hFPR1; [6]): 100 nM
- sensitivity relative to full-length Aβ1-42, hFPR1 (hFPR1): more than 10 fold
- threshold for minimal detectable activation, hFPR2 (hFPR2): 1 µM
- hFPR2 response concentration (hFPR2): only responded to micromolar concentrations
- migration (chemotaxis) of U87 cells (U87 cells [1]): Aβ11-40 but not Aβ17-40 evoked cell migration; also recorded: only Aβ11-40 but not Aβ17-40 induced migration; also recorded: Aβ11-40– but not Aβ17-40–induced chemotaxis of U87 cells
- Ca2+ responses on FPRs (human and mouse FPRs [2]): elicited responses on all FPRs that we could previously activate with the full-length Aβ1-42
- Ca2+ response of U87 cells (U87 cells [3]; n = 3, N = 1): induced a strong calcium flux; also recorded: pronounced activation of U87 cells
- U87 concentration response curve compared with FPR-transfected HEK293T cells (U87 cells [3]; n = 3, N = 1): clear correlation with the hFPR1 response; also recorded: remarkably similar to hFPR1
- threshold for minimal detectable activation, mFpr2 (mFpr2): 1 µM
- mFpr2 response concentration (mFpr2): only responded to micromolar concentrations

Compound: Aβ17-40: N-abridged naturally occurring Aβ variant, from Anaspec, validated with Sigma-Aldrich and Synpeptide peptides (LVFFAEDVGSNKGAIIGLMVGGVV; Amyloid-beta protein 40; UniProt P05067 688-711, looked up, fragment)
- activation of mouse and human FPR1 (in words) (mouse and human FPR1): very potent activators of mouse and human FPR1, acting at nanomolar concentrations; also recorded: drastically lower concentrations than longer peptides
- threshold for minimal detectable activation, hFPR3 (hFPR3): 1 µM
- threshold for minimal detectable activation, mFpr1 (mFpr1): 30 nM
- sensitivity relative to full-length Aβ1-42, mFpr1 (mFpr1): more than 10 fold
- response of hFPRs (in addition to hFPR2) (hFPR1, hFPR2, hFPR3): all other hFPRs also responded
- activation of glial cells (glial cells): shown to activate glial cells
- threshold for minimal detectable activation, hFPR1 (hFPR1; [6]): 100 nM
- sensitivity relative to full-length Aβ1-42, hFPR1 (hFPR1): more than 10 fold
- threshold for minimal detectable activation, hFPR2 (hFPR2): 1 µM
- hFPR2 response concentration (hFPR2): only responded to micromolar concentrations
- migration (chemotaxis) of U87 cells (U87 cells [1]): Aβ11-40 but not Aβ17-40 evoked cell migration; also recorded: only Aβ11-40 but not Aβ17-40 induced migration; also recorded: Aβ11-40– but not Aβ17-40–induced chemotaxis of U87 cells
- susceptibility of FPR responses to manufacturer-dependent effects (human and mouse FPRs [2]; 5 μM Aβ17-40 from Anaspec, Synpeptide, Sigma-Aldrich): less susceptible to manufacturer-dependent effects than full length Aβ
- Ca2+ responses on FPRs (human and mouse FPRs [2]): elicited responses on all FPRs that we could previously activate with the full-length Aβ1-42
- Ca2+ response of U87 cells (U87 cells [3]; n = 3, N = 1): induced a strong calcium flux; also recorded: pronounced activation of U87 cells
- U87 concentration response curve compared with FPR-transfected HEK293T cells (U87 cells [3]; n = 3, N = 1): clear correlation with the hFPR1 response; also recorded: remarkably similar to hFPR1
- threshold for minimal detectable activation, mFpr2 (mFpr2): 1 µM
- mFpr2 response concentration (mFpr2): only responded to micromolar concentrations

Compound: Aβ17-43: Aβ fragment of earlier studies (LVFFAEDVGSNKGAIIGLMVGGVVIAT; Amyloid-beta protein 42; UniProt P05067 688-714, looked up, fragment)
- activation of human glial cells (glial cells; human glial cells): only lead to a partial activation of human glial cells

Compound: Tert-Boc-FLFL [tBoc2, reference compound]
- antagonism at FPR3 (hFPR3; 10 μM tBoc2 co-applied with 5 μM Aβ17-40, n = 1, N = 2): does not inhibit FPR3
- binding preference (FPR1): preferentially binds to FPR1
- antagonism at FPR1 (hFPR1; [7]): competitive antagonist of FPR1 and FPR2
- antagonism at FPR2 (hFPR2; [7]): competitive antagonist of FPR1 and FPR2
- effect on microglia reactivity, neuronal pathology and cognition (APP/PS1 mice): reduced microglia reactivity, decreased neuronal pathology, and improved cognitive performance
- inhibition of U87 Ca2+ response to Aβ11-40 / Aβ17-40 (U87 cells [3]; 10 μM tBoc2 vs 5 μM Aβ11-40 or Aβ17-40, n = 3, N = 1): completely abolished the responses

Compound: WKWMVm-CHO
- activation of human and mouse FPRs (human and mouse FPRs [4]): potent activators of all three human and mouse FPRs

Compound: WKWMVm-NH2
- activation of human and mouse FPRs (human and mouse FPRs [4]): potent activators of all three human and mouse FPRs

Compound: f-MAMKKL [SP4, reference compound]
- activation of hFPR3 (hFPR3): would not activate hFPR3
- migration of U87 cells towards receptor subtype-specific activator (U87 cells [1]): do not respond to the hFPR2 agonist SP4; also recorded: not towards the FPR2-specific SP4
- effect of pre-application on U87 Ca2+ response to secondary Aβ17-40 stimulus (U87 cells [5]): not influenced by pre-application of the FPR2-specific agonist SP4
- Ca2+ response of U87 cells to receptor subtype-specific activator (U87 cells [3]): not to the hFPR2-specific SP4 stimulus

Compound: f-MLFYFS [SP6, reference compound]
- activation of hFPR3 (hFPR3): would not activate hFPR3
- migration of U87 cells towards receptor subtype-specific activator (U87 cells [1]): migrate towards the hFPR1-stimulus SP6; also recorded: only migrated towards the FPR1-specific SP6
- effect of pre-application on U87 Ca2+ response to secondary Aβ17-40 stimulus (U87 cells [5]): abolished by the FPR1 activator SP6; also recorded: absent after pre-application of the FPR1-specific agonist SP6
- Ca2+ response of U87 cells to receptor subtype-specific activator (U87 cells [3]): U87 cells respond to the potent hFPR1 activator SP6; also recorded: only responded to the hFPR1-specific SP6 stimulus with a calcium signal
